Data from patent EP2261258A1, “MCSP-aligned scFv antibody fragments and use of same” (Schuler, Gerold, priority 2009, dated 2010).
Like-named read-outs stand apart in the source and are kept apart here.

Tests used:
AML = conditions: Bross et al. 2001; cited from earlier work
[1] = melanoma patients, cited from earlier work
[2] = biological target: Melanom-assoziiertes Chondroitinsulfat Proteoglykan (MCSP) (human) (UniProt Q6UVK1); test: flow cytometry, saturation binding on A2058 melanoma cells, half-maximal saturation concentration
[3] = biological target: Melanom-assoziiertes Chondroitinsulfat Proteoglykan (MCSP) (human) (UniProt Q6UVK1); test: ratio of KD values, flow cytometry on A2058 cells

For “GO: gegen CD33 gerichteter humanisierter Antikörper gekoppelt an Calicheamycin”, the “Patienten, die ansprechen” value (AML) is listed as about 30% and the “mittlere rückfallfreie Überlebenszeit” value (AML) is listed as 6,8 Monate.

For `CN(C)/N=N/c1[nH]cnc1C(N)=O` [Dacarbazin, Dimethyl-trizeno-imidazol-Carboxamid], the Ansprechraten ([1]; according to newer studies (Avril et al. 2004)) is listed as about 7% and the Ansprechraten ([1]; as given in most studies) is listed as 10 - 20%.

B1: scFv-Fragment MCSP (scFv)
scFv: MADYKDIVMTQSPASLAVSLGQRATISCRASESVDSYGNSFMHWYQQKPGQPPKLLIYLASNLESGVPARFSGSGSRTDFTLTIDPVEADDAATYYCQQNNEDPLTFGSGTKLETKRGGGGSGGGGSGGGGSGGGGSQVQLKQSGPELVKPGASVKISCKASGYAFSRSWMNWVKQRPGQGLEWIGRIYPGDGDTNYNGKFKGKATLTADKSSSTAYMQVSSLTSVDSAVYFCARGNTVVVPYTMDYWGQGTSVTVPSASGADHHHHHH
Work on B1 yielded a Kd [2] of 23.3 nM.

B2: scFv-Fragment MCSP HL (scFv)
scFv: MADYKQVKLQQSGPELVKPGASVKISCKASGYAFSRSWMNWVKQRPGQGLEWIGRIYPGDGDTNYNGKFKGKATLTADKSSSTAYMQVSSLTSVDSAVYFCARGNTVVVPYTMDYWGQGTTVTVSSGGGGSGGGGSGGGGSDIELTQSPASLAVSLGQRATISCRASESVDSYGNSFMHWYQQKPGQPPKLLIYLASNLESGVPARFSGSGSRTDFTLTIDPVEADDAATYYCQQNNEDPLTFGGGTKLELKRSASGADHHHHHH
Molecule B2 has a Kd [2] of 1.65 nM and a fold improvement of affinity against the original scFv MCSP [3] of 14 fold.
